System: focal onset seizures induced by electrostimulation of 44 mA, 6 Hz, 3 sec in ICR mouse
Test: 6 Hz method for screening anticonvulsants (6 Hz, 44 mA electrostimulation)
Format: in vivo
Conditions: male ICR mice, intraperitoneal (ip), electrostimulation 44 mA, 3 sec to the eye, number of non-seizure animals/number of animals used
Source text: The utility of the compounds according to the present invention as an anticonvulsant agent has been investigated by the 6 Hz method, which has been well established as pharmacological screening methods of convulsant agents for focal onset seizures. The procedure of the 6 Hz method for screening anticonvulsant was as follows:
1) Preparation of Experimental Animals
Male ICR mice are purchased from Orient Bio, Inc. of Korea, and are stored and managed according to laboratory animal management standards of the Institutional Animal Care and Use Committee (IACUC) by putting the same in a wire net cage under an environment in which an ambient temperature of 19 to 25° C., 40 to 60% relative humidity and 12 hour periods of light/dark were auto-controlled, and water was freely taken. After stabilization for a week, mice with a body weight of 18 to 23 g were used in the experiment.
2) Evaluation of the Anticonvulsant Effect of a Compound
5% Tetracaine (Sigma) was added to both eyes to provide a local anesthetic effect at 5 to 10 minutes before the period of electrical stimulation at the animal ICR mouse. The compounds to be tested were dissolved in distilled water in which 30% polyethylene glycol 300+5% dimethylsulfoxide+5% Cremophor was dissolved and administered intraperitoneally (ip) to the animal at a dosage volume of 10 mL/kg. Then, electrostimulation of 44 mA, 6 Hz, and 3 sec was applied to the eye to induce focus-generating seizures. After the electrical stimulation, the presence of seizures due to drug effects was confirmed, and the ratio of animals showing no seizures was expressed as a protection rate (the number of non-seizure animals/the number of animals used in experiments=protection rate). […]

Structure (SMILES)	6 Hz, 44 mA protection rate
Cc1nnc(CC(O)c2cc(-c3ccc(Cl)cc3)ccc2F)o1 (centres unmarked) [Example 1, 1-[5-(4-chlorophenyl)-2-fluoro-phenyl]-2-(5-methyl-1,3,4-oxadiazol-2-yl)ethanol]	++ (0.6 to 0.8 are scored as ‘++’)
Cc1nnc(CC(O)c2cc(-c3ccc(C(F)(F)F)cc3)ccc2F)o1 (centres unmarked) [Example 2, 1-[2-fluoro-5-[4-(trifluoromethyl)phenyl]phenyl]-2-(5-methyl-1,3,4-oxadiazol-2-yl)ethanol]	++ (0.6 to 0.8 are scored as ‘++’)
Cc1nnc(CC(OC(N)=O)c2cc(-c3ccc(C(F)(F)F)cc3)ccc2F)o1 (centres unmarked) [Example 3, [1-[2-fluoro-5-[4-(trifluoromethyl)phenyl]phenyl]-2-(5-methyl-1,3,4-oxadiazole-2-yl)ethyl] carbamate]	++ (0.6 to 0.8 are scored as ‘++’)
Cc1nnc(CC(OC(N)=O)c2cc(-c3ccc(Cl)cc3)ccc2F)o1 (centres unmarked) [Example 4, [1-[5-(4-chlorophenyl)-2-fluoro-phenyl]-2-(5-methyl-1,3,4-oxadiazol-2-yl)ethyl] carbamate]	++ (0.6 to 0.8 are scored as ‘++’)
OC(Cc1nnco1)c1cc(-c2ccc(C(F)(F)F)cc2)ccc1F (centres unmarked) [Example 5, 1-[2-fluoro-5-[4-(trifluoromethyl)phenyl]phenyl]-2-(1,3,4-oxadiazol-2-yl)ethanol]	+ (0.2 to 0.6 are scored as ‘+’)
Cc1nnc(CC(OC(N)=O)c2cccc(-c3ccc(C(F)(F)F)cc3)c2)o1 (centres unmarked) [Example 7, [2-(5-methyl-1,3,4-oxadiazol-2-yl)-1-[3-[4-(trifluoromethyl)phenyl]phenyl]ethyl]carbamate]	++ (0.6 to 0.8 are scored as ‘++’)
Cc1nnc(CC(O)c2cc(CCC(F)(F)F)ccc2F)o1 (centres unmarked) [Example 10, 1-[2-fluoro-5-(3,3,3-trifluoropropyl)phenyl]-2-(5-methyl-1,3,4-oxadiazol-2-yl)ethanol]	+ (0.2 to 0.6 are scored as ‘+’)
Cc1nnc(CC(OC(N)=O)c2cc(CCC(F)(F)F)ccc2F)o1 (centres unmarked) [Example 11, [1-[2-fluoro-5-(3,3,3-trifluoropropyl)phenyl]-2-(5-methyl-1,3,4-oxadiazol-2-yl)ethyl] carbamate]	+ (0.2 to 0.6 are scored as ‘+’)
Cc1nnc(CC(OC(N)=O)c2cc(OCCCC(F)(F)F)ccc2F)o1 (centres unmarked) [Example 16, [1-[2-fluoro-5-(4,4,4-trifluorobutoxy)phenyl]-2-(5-methyl-1,3,4-oxadiazol-2-yl)ethyl] carbamate]	++ (0.6 to 0.8 are scored as ‘++’)
Cc1nnc(CC(O)c2cc(OCC(F)(F)F)ccc2F)o1 (centres unmarked) [Example 17, 1-[2-fluoro-5-(2,2,2-trifluoroethoxy)phenyl]-2-(5-methyl-1,3,4-oxadiazol-2-yl)ethanol]	+ (0.2 to 0.6 are scored as ‘+’)
Cc1nnc(CC(OC(N)=O)c2cc(OCC(F)(F)F)ccc2F)o1 (centres unmarked) [Example 18, [1-[2-fluoro-5-(2,2,2-trifluoroethoxy)phenyl]-2-(5-methyl-1,3,4-oxadiazol-2-yl)ethyl] carbamate]	+ (0.2 to 0.6 are scored as ‘+’)
Cc1nnc(CC(O)c2cccc(OCCCC(F)(F)F)c2)o1 (centres unmarked) [Example 19, 2-(5-methyl-1,3,4-oxadiazol-2-yl)-1-[3-(4,4,4-trifluorobutoxy)phenyl]ethanol]	+ (0.2 to 0.6 are scored as ‘+’)
Cc1nnc(CC(OC(N)=O)c2cccc(OCCCC(F)(F)F)c2)o1 (centres unmarked) [Example 20, [2-(5-methyl-1,3,4-oxadiazol-2-yl)-1-[3-(4,4,4-trifluorobutoxy)phenyl]ethyl] carbamate]	+ (0.2 to 0.6 are scored as ‘+’)
CCCCOc1ccc(F)c(C(Cc2nnc(C)o2)OC(N)=O)c1 (centres unmarked) [Example 22, [1-(5-butoxy-2-fluoro-phenyl)-2-(5-methyl-1,3,4-oxadiazol-2-yl)ethyl] carbamate]	+ (0.2 to 0.6 are scored as ‘+’)
